Laboratory results reported in article PMC8954769, “Development of an LC-MS/MS Method for ARV-110, a PROTAC Molecule, and Applications to Pharmacokinetic Studies” (Molecules, 2022).

Columns and labels:
[1] = set-up: method as in PMID 34355087; settings: cited from earlier work
AR = test system: AR; set-up: method as in PMID 31885879, PMID 30271980; settings: various prostate cancer cell lines; cited from earlier work
[2] = In vitro plasma stability, rat; format: in vitro ADME; settings: 37 °C, incubation 4 h, read-out: T1/2 in plasma
Description: (§1) The stabilities of ARV-110 in the hepatic microsomal fraction and plasma were investigated for three species (human, rat, and mouse). For the microsomal stability study, a reaction mixture containing hepatic microsomes (protein concentration, 0.5 mg/mL) and 1 mM NADPH in phosphate buffer (pH 7.4) was pre-incubated in a thermomixer (5 min, 37 °C, 200 rpm). To initiate the metabolic reaction, 5 μL of ARV-110 in methanol (100 μM) was added to the pre-incubated mixture to obtain a final ARV-110 concentration of 1 μM. The metabolic reactions of buspirone and verapamil were conducted simultaneously as positive controls. For plasma stability measurements, 5 μL of ARV-110 in methanol (100 μM) was added to pre-warmed blank plasma to obtain a final ARV-110 concentration of 1 μM. Procaine was used to control plasma stability. The temperature was maintained and agitation was continued throughout the reaction, and sampling was conducted at predetermined time points (0 (beginning of the reaction), 15; 30; 60; 120; […] min). For the microsomal and plasma stability measurements, the reaction was conducted for 120 and 240 min, respectively. […] The elimination rate constant (ke) was determined as the slope of the linear regression between the log of the percentage of analyte remaining and the incubation time. […]

[3] = Hepatic microsomal metabolic stability, human; format: in vitro ADME; settings: 1 mM NADPH, 37 °C
Description: as §1

[4] = Stability of ARV-110 QC samples in mouse plasma under storage conditions; format: in vitro ADME
Description: (§2) The sample stability in rat and mouse plasma was evaluated at low and high QC concentrations. The short-term stability was evaluated at room temperature for 1 h, whereas the long-term stability was determined by assaying samples stored at −20 °C for 4 weeks. […] The freeze–thaw stability was tested by subjecting samples to three freeze–thaw cycles.

[5] = In vitro plasma stability, human; format: in vitro ADME; settings: 37 °C, incubation 4 h, read-out: T1/2 in plasma
Description: as §1

resistance models = test system: resistance models; set-up: method as in PMID 31885879, PMID 30271980; settings: cited from earlier work
[6] = In vitro plasma stability, mouse; format: in vitro ADME; settings: 37 °C, incubation 4 h, read-out: T1/2 in plasma
Description: as §1

[7] = Pharmacokinetic study in rats (IV and PO); format: in vivo, Sprague Dawley (SD) rats; settings: rat; for bioavailability: oral 5 mg/kg vs IV 2 mg/kg
Description: (§3) The validated LC-MS/MS method was applied to determine ARV-110 in pharmacokinetic studies in rats and mice. Animal studies were approved in advance by the Institutional Animal Care and Use Committee of Chungnam National University (202103A-CNU-053; Daejeon, Republic of Korea). Male Sprague Dawley (SD) rats (7 weeks old, 210–251 g) and male ICR mice (6 weeks old, 25–32 g) were purchased from Orient Bio Inc. (Seongnam, Republic of Korea). Their habitat was maintained under a 12 h light–dark cycle at a room temperature of 20–25 °C and a relative humidity of 40–60%. The animals had free access to food and water. Food fasting was started 14 or 4 h prior to drug administration to rats and mice, respectively. After drug administration, the animals were not given food or water for another 4 h.
The drug solution for the pharmacokinetic study in rats was prepared by dissolving ARV-110 in a dimethyl sulfoxide (DMSO)–PEG400–Cremophor EL–saline (5:40:5:50, v/v/v/v). The drug solution was administered to the rats via a single IV bolus into the tail vein at a dose of 2 mg/kg or PO using a gavage needle at a dose of 5 mg/kg. Blood samples (100 μL) were collected from the jugular vein using heparinized syringes at 0.083 (IV only), 0.25, 0.5, 1, 2, 4, 6, 8, 24, and 48 h after ARV-110 administration. Plasma was collected from the blood by centrifugation, and a 20 μL aliquot of plasma was stored at −20 °C until analysis.
(§4) For plasma sample preparation, 20 μL of rat or mouse plasma was added to 20 μL of IS solution (10 μg/mL) and 110 μL of acetonitrile. After vigorous mixing for 10 min, the mixture was centrifuged at 13,500 rpm for 10 min. An aliquot of the supernatant (100 μL) was collected for analysis. Cmax and Tmax were determined directly from the plasma concentration–time profile of each animal. To determine other pharmacokinetic parameters, the experimental data were analyzed using Phoenix® 8.2 software (Certara L.P., Princeton, NJ, USA), as described previously. All data are presented as mean ± SD.

[8] = Hepatic microsomal metabolic stability, rat; format: in vitro ADME; settings: 1 mM NADPH, 37 °C
Description: as §1

[9] = set-up: method as in doi:10.1200/JCO.2020.38.15_suppl.3500; settings: preliminary data from a phase I clinical trial; cited from earlier work
[10] = Pharmacokinetic study in mice (IV and PO); format: in vivo, ICR mice; settings: mouse; for bioavailability: oral 5 mg/kg vs IV 2 mg/kg, after dose normalization
Description: as §3
The drug solution for the pharmacokinetic study in mice was prepared by dissolving ARV-110 in DMSO–PEG400–Cremophor EL–saline (5:30:2.5:62.5, v/v/v/v). The drug solution was administered via an IV bolus into the tail vein at a dose of 2 mg/kg or PO at a dose of 5 mg/kg. Blood samples (50 μL) were alternatively collected from the right retro-orbital plexus at 0.05 (IV only), 0.12, 0.5, 1, 2, 4, 8, 24, and 48 h after ARV-110 administration. Plasma was obtained by centrifuging the blood at 17,600× g for 5 min, and a 20 μL aliquot of plasma was stored at −20 °C until analysis.
as §4

[11] = Hepatic microsomal metabolic stability, mouse; format: in vitro ADME; settings: 1 mM NADPH, 37 °C
Description: as §1

[12] = Stability of ARV-110 QC samples in rat plasma under storage conditions; format: in vitro ADME
Description: as §2

[13] = 15 min at room temperature (25 °C), nominal 5 ng/mL
[14] = 15 min at room temperature (25 °C), nominal 2500 ng/mL
[15] = 1 h at room temperature (25 °C), nominal 5 ng/mL
[16] = 1 h at room temperature (25 °C), nominal 2500 ng/mL
[17] = 4 h on ice cold, nominal 5 ng/mL
[18] = 4 h on ice cold, nominal 2500 ng/mL
[19] = Freeze–thaw (3 cycles), nominal 5 ng/mL
[20] = Freeze–thaw (3 cycles), nominal 2500 ng/mL
[21] = Long term (4 weeks at −20 °C), nominal 5 ng/mL
[22] = Long term (4 weeks at −20 °C), nominal 2500 ng/mL
[23] = Processed sample (autosampler, 10 °C, 24 h), nominal 5 ng/mL
[24] = Processed sample (autosampler, 10 °C, 24 h), nominal 2500 ng/mL
[25] = male, Sprague Dawley, in vivo, intravenous, 2 mg/kg
[26] = male, Sprague Dawley, in vivo, oral, 5 mg/kg
[27] = male, ICR, in vivo, intravenous, 2 mg/kg
[28] = male, ICR, in vivo, oral, 5 mg/kg

## Nc1cccc2c1C(=O)N(C1CCC(=O)NC1=O)C2=O (stereo not drawn) [pomalidomide]
[1]
  logP: 0.01
  pKa: 1.89

## N#Cc1ccc(O[C@H]2CC[C@H](NC(=O)c3ccc(N4CCC(CN5CCN(c6cc7c(cc6F)C(=O)N(C6CCC(=O)NC6=O)C7=O)CC5)CC4)nn3)CC2)cc1Cl (stereo partly drawn) [ARV-110, bavdegalutamide]
AR
  degradation of AR: 95–98%
[2]
  half-life at 1 μM: 0.733 h
[3]; human hepatic microsomes 0.5 mg/mL, 1 μM
  drug remaining after incubation for 2 h: 92.07%
[3]; pH 7.4, human hepatic microsomes 0.5 mg/mL, read-out: elimination half-life (T1/2) in hepatic microsomes
  half-life at 1 μM: 16.4 h
[4]; [13]
  Stability in Mouse Plasma (%): 99.43 ± 2.93%
[4]; [14]
  Stability in Mouse Plasma (%): 95.74 ± 5.74%
[4]; [15]
  Stability in Mouse Plasma (%): 83.70 ± 14.24%
[4]; [16]
  Stability in Mouse Plasma (%): 78.91 ± 4.93%
[4]; [17]
  Stability in Mouse Plasma (%): 93.01 ± 5.30%
[4]; [18]
  Stability in Mouse Plasma (%): 94.09 ± 5.23%
[4]; [19]
  Stability in Mouse Plasma (%): 104.0 ± 6.1%
[4]; [20]
  Stability in Mouse Plasma (%): 103.2 ± 4.1%
[4]; [21]
  Stability in Mouse Plasma (%): 97.97 ± 10.23%
[4]; [22]
  Stability in Mouse Plasma (%): 97.59 ± 3.78%
[4]; [23]
  Stability in Mouse Plasma (%): 98.77 ± 3.58%
[4]; [24]
  Stability in Mouse Plasma (%): 98.62 ± 3.54%
[4]; mouse plasma, short-term storage, 1 h at 25 °C
  ARV-110 remained in QC samples: ~80%
[5]
  half-life at 1 μM: 0.4 h
Resistance models
  reduction of tumor growth: 70–100%
[6]
  half-life at 1 μM: 1.55 h
[7]; [25]
  AUC(0-inf): 4860 ± 381 ng·h/mL
  AUC(0-t): 4530 ± 288 ng·h/mL
  Cmax: 2520 ± 292 ng/mL
  MRT: 10.2 ± 0.48 h
  Tmax: 0.083 h
  clearance: 6.89 mL/min/kg
  half-life: 13.6 ± 1.43 h
[7]; male, Sprague Dawley, in vivo, intravenous, 2 mg/kg, read-out: Vss
  Vd: 5.78 ± 0.32 L/kg
[7]; [26]
  AUC(0-inf): 2890 ± 318 ng·h/mL
  AUC(0-t): 2420 ± 222 ng·h/mL
  Cmax: 110 ± 9.2 ng/mL
  MRT: 16.4 ± 1.16 h
  Tmax: 5.5 ± 1.92 h
  half-life: 17.7 ± 3.21 h
[7]; male, Sprague Dawley, in vivo, 5 mg/kg, read-out: Bioavailability
  bioavailability: 23.8%
[7]
  bioavailability: 23.83 ± 2.62%
[8]; pH 7.4, rat hepatic microsomes 0.5 mg/mL, read-out: elimination half-life (T1/2) in hepatic microsomes
  half-life at 1 μM: 36.9 h
[8]; rat hepatic microsomes 0.5 mg/mL, 1 μM
  drug remaining after incubation for 2 h: 96.60%
[9]
  safety and tolerability in patients: satisfactory safety and tolerability
[10]; [27]
  AUC(0-inf): 11300 ng·h/mL
  AUC(0-t): 10800 ng·h/mL
  Cmax: 1260 ± 99 ng/mL
  MRT: 13.1 ± 0.9 h
  Tmax: 0.05 h
  clearance: 3.02 mL/min/kg
  half-life: 11.4 ± 0.51 h
[10]; male, ICR, in vivo, intravenous, 2 mg/kg, read-out: Vss
  Vd: 2.37 ± 0.402 L/kg
[10]; [28]
  AUC(0-inf): 10700 ng·h/mL
  AUC(0-t): 9870 ± 1000 ng·h/mL
  Cmax: 612 ± 88.4 ng/mL
  MRT: 12.9 ± 0.84 h
  Tmax: 4.8 ± 1.79 h
  half-life: 14.6 ± 2.48 h
[10]; male, ICR, in vivo, 5 mg/kg, read-out: Bioavailability
  bioavailability: 37.9%
[10]
  bioavailability: 37.89 ± 4.16%
[11]; mouse hepatic microsomes 0.5 mg/mL, 1 μM
  drug remaining after incubation for 2 h: 80.95%
[11]; pH 7.4, mouse hepatic microsomes 0.5 mg/mL, read-out: elimination half-life (T1/2) in hepatic microsomes
  half-life at 1 μM: 6.92 h
[12]; [13]
  Stability in Rat Plasma (%): 100.6 ± 7.8%
[12]; [14]
  Stability in Rat Plasma (%): 96.99 ± 2.27%
[12]; [15]
  Stability in Rat Plasma (%): 68.73 ± 7.74%
[12]; [16]
  Stability in Rat Plasma (%): 68.82 ± 1.08%
[12]; [17]
  Stability in Rat Plasma (%): 92.20 ± 1.38%
[12]; [18]
  Stability in Rat Plasma (%): 92.21 ± 2.24%
[12]; [19]
  Stability in Rat Plasma (%): 103.2 ± 3.9%
[12]; [20]
  Stability in Rat Plasma (%): 101.8 ± 3.4%
[12]; [21]
  Stability in Rat Plasma (%): 100.6 ± 5.6%
[12]; [22]
  Stability in Rat Plasma (%): 100.5 ± 5.0%
[12]; [23]
  Stability in Rat Plasma (%): 99.60 ± 2.91%
[12]; [24]
  Stability in Rat Plasma (%): 102.6 ± 4.1%
[12]; rat plasma, short-term storage, 1 h at 25 °C
  ARV-110 remained in QC samples: approximately 69%
